Experimental data published in ChEMBL document CHEMBL4680342, “Discovery of DB18, a potent inhibitor of CLK kinases with a high selectivity against DYRK1A kinase” (Bioorg Med Chem, 2021).

How the values were obtained:
[1] = test system: HCT-116; assay: cells; conditions: Homo sapiens, HCT-116, 48 h
Description: Cytotoxicity against human HCT-116 cells assessed as reduction in cell viability incubated for 48 hrs by Hoechst-33342 staining based cell counting method (Rvb > 25 microM)

[2] = test system: Fibroblast; assay: cells; conditions: Homo sapiens, 48 h
Description: Cytotoxicity against human Fibroblast cells assessed as reduction in cell viability incubated for 48 hrs by Hoechst-33342 staining based cell counting method (Rvb > 25 microM)

[3] = test system: MDA-MB-231; assay: cells; conditions: Homo sapiens, MDA-MB-231, 48 h
Description: Cytotoxicity against human MDA-MB-231 cells assessed as reduction in cell viability incubated for 48 hrs by Hoechst-33342 staining based cell counting method (Rvb > 25 microM)

[4] = test system: Caco-2; assay: cells; conditions: Homo sapiens, Caco-2, 48 h
[5] = test system: NCI-H727; assay: cells; conditions: Homo sapiens, NCI-H727, 48 h
Description: Cytotoxicity against human NCI-H727 cells assessed as reduction in cell viability incubated for 48 hrs by Hoechst-33342 staining based cell counting method (Rvb > 25 microM)

[6] = test system: PC-3; assay: cells; conditions: Homo sapiens, PC-3, 48 h
Description: Cytotoxicity against human PC-3 cells assessed as reduction in cell viability incubated for 48 hrs by Hoechst-33342 staining based cell counting method (Rvb > 25 microM)

[7] = test system: Huh-7; assay: cells; conditions: Homo sapiens, Huh-7, 48 h
[8] = test system: MCF7; assay: cells; conditions: Homo sapiens, MCF7, 48 h
[9] = biological target: Glycogen synthase kinase-3 beta (Homo sapiens) (UniProt P49841); assay: Inhibition of human GSK3beta assessed as residual activity at 10 uM by ADP-Glo assay relative to control
[10] = biological target: CDK9/cyclin T1 (Homo sapiens) (UniProt O60563+P50750); assay: Inhibition of human CDK9/CyclinT assessed as residual activity at 10 uM by ADP-Glo assay relative to control; assay type: protein-complex assay
[11] = biological target: Dual specificity protein kinase CLK1 (Mus musculus) (UniProt P22518); assay: Inhibition of mouse CLK1 assessed as residual activity by ADP-Glo assay
[12] = biological target: DYRK1A (dual specificity tyrosine-phosphorylation-regulated kinase 1A) (Rattus norvegicus, UniProt Q63470); assay: Inhibition of rat DYRK1A (1 to 499 residues) assessed as residual activity at 10 uM by ADP-Glo assay relative to control; conditions: rat DYRK1A enzyme (residues 1 to 499), read-out: Activity
[13] = biological target: Cyclin-dependent kinase 5/CDK5 activator 1 (Homo sapiens) (UniProt Q00535+Q15078); assay: Inhibition of human CDK5/p25 assessed as residual activity at 10 uM by ADP-Glo assay relative to control; assay type: protein-complex assay
[14] = biological target: Dual specificity protein kinase CLK1 (Mus musculus) (UniProt P22518); assay: Inhibition of mouse CLK1 assessed as residual activity at 10 uM by ADP-Glo assay relative to control
[15] = biological target: T1, Serine/threonine-protein kinase haspin (Homo sapiens) (UniProt Q8TF76); assay: Inhibition of human HASPIN assessed as residual activity at 10 uM by ADP-Glo assay relative to control
T1 sequence (whole entry): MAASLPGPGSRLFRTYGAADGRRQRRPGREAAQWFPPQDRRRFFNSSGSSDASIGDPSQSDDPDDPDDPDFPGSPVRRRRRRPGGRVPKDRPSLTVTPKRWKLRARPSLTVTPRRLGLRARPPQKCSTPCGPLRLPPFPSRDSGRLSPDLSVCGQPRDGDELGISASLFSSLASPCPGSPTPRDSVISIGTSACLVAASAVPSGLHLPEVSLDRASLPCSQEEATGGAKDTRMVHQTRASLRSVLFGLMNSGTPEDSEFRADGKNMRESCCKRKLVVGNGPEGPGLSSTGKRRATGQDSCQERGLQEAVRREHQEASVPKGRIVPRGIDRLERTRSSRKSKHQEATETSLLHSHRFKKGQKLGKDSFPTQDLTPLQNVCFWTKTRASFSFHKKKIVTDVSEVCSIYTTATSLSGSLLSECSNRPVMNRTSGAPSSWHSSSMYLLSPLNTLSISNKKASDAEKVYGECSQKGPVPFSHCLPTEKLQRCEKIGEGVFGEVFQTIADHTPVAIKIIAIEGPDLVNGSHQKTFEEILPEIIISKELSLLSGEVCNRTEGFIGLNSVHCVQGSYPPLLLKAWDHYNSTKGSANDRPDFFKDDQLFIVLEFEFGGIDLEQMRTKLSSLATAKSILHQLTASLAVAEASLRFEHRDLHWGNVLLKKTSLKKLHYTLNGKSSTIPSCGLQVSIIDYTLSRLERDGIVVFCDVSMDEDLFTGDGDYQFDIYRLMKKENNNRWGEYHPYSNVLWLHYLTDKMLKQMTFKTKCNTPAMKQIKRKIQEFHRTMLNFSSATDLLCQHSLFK

[16] = biological target: Casein kinase I isoform epsilon (Homo sapiens) (UniProt P49674); assay: Inhibition of human CK1epsilon assessed as residual activity at 10 uM by ADP-Glo assay relative to control
[17] = biological target: Serine/threonine-protein kinase pim-1 (Homo sapiens) (UniProt P11309); assay: Inhibition of human PIM1 assessed as residual activity at 10 uM by ADP-Glo assay relative to control
[18] = biological target: Dual specificity tyrosine-phosphorylation-regulated kinase 1A (Homo sapiens, UniProt Q13627); assay: Inhibition of human DYRK1A at 100 uM by ADP-Glo assay
[19] = biological target: Dual specificity tyrosine-phosphorylation-regulated kinase 1B (Homo sapiens, UniProt Q9Y463); assay: Inhibition of human DYRK1B at 100 uM by ADP-Glo assay
[20] = biological target: T2, Dual specificity tyrosine-phosphorylation-regulated kinase 2 (Homo sapiens, UniProt Q92630); assay: Inhibition of human DYRK2 at 100 uM by ADP-Glo assay
T2 sequence (Q92630 whole entry): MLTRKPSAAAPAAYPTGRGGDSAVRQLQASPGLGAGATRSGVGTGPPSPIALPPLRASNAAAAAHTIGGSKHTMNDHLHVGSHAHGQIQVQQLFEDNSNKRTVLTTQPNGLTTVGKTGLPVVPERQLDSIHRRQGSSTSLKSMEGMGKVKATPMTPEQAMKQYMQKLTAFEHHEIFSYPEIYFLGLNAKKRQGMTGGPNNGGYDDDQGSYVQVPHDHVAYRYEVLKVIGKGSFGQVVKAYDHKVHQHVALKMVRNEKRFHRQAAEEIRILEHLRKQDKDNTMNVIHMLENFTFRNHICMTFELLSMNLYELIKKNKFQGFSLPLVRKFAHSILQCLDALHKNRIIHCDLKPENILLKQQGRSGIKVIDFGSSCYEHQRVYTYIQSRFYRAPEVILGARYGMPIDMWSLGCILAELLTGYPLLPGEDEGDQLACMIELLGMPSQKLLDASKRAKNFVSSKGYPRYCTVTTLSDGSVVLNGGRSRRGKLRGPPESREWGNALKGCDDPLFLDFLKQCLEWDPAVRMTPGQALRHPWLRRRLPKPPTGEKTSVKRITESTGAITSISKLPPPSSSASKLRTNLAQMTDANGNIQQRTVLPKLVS

[21] = biological target: Dual specificity tyrosine-phosphorylation-regulated kinase 1A (Rattus norvegicus, UniProt Q63470); assay: Inhibition of rat DYRK1A (1 to 499 residues) assessed as residual activity at 100 uM by ADP-Glo assay

Chain of Glycogen synthase kinase-3 beta (Homo sapiens) (P49841 whole entry, looked up): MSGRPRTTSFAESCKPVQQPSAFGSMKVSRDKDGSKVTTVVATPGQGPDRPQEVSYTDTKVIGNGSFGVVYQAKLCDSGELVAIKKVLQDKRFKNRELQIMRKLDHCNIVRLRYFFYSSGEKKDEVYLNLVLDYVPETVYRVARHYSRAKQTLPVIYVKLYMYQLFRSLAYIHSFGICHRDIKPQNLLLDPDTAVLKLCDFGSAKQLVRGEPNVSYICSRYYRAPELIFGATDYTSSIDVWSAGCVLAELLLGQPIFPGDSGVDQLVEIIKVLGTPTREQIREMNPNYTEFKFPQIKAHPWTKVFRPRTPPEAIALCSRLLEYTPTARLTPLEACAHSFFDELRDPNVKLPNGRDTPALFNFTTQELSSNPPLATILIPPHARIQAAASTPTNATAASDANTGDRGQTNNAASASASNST
Chain of Cyclin-dependent kinase 5/CDK5 activator 1 (Homo sapiens) (Q00535 whole entry): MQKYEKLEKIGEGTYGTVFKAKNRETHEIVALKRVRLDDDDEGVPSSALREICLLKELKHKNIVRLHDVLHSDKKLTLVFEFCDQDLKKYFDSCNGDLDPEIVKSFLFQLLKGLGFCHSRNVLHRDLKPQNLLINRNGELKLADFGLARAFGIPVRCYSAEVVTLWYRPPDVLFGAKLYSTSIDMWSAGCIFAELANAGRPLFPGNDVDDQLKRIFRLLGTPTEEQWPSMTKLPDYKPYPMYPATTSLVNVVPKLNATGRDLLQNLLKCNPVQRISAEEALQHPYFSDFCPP
Chain of Cyclin-dependent kinase 5/CDK5 activator 1 (Homo sapiens) (Q15078 99-307 partner limits assumed): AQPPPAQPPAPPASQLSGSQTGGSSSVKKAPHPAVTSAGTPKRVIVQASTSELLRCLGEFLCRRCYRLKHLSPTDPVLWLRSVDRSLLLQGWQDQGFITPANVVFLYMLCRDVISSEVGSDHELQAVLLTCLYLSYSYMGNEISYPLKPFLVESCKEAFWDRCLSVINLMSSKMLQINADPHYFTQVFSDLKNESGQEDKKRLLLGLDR
Chain of Serine/threonine-protein kinase pim-1 (Homo sapiens) (P11309 whole entry, looked up): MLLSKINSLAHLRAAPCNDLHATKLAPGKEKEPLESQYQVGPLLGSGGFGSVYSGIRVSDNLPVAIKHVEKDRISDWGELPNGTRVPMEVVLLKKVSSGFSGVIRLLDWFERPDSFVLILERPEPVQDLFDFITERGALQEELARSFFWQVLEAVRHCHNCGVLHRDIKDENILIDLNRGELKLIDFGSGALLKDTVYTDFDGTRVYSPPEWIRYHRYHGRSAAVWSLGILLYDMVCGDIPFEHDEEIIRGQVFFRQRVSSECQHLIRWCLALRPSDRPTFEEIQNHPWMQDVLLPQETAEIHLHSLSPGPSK
Chain of Casein kinase I isoform epsilon (Homo sapiens) (P49674 whole entry, looked up, canonical isoform): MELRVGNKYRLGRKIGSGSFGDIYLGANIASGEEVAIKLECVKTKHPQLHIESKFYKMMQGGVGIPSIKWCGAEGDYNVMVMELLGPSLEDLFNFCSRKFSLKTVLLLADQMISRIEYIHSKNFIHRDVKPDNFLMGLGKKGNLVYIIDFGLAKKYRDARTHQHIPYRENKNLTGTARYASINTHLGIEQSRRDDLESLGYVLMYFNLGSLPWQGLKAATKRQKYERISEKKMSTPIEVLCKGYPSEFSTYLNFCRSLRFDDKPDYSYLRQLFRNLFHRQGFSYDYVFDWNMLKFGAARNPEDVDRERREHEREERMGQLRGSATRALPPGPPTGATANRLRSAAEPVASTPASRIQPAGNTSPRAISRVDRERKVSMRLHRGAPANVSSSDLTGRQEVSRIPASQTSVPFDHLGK
Chain of Dual specificity protein kinase CLK1 (Mus musculus) (P22518 whole entry, looked up, the tested form may be a part): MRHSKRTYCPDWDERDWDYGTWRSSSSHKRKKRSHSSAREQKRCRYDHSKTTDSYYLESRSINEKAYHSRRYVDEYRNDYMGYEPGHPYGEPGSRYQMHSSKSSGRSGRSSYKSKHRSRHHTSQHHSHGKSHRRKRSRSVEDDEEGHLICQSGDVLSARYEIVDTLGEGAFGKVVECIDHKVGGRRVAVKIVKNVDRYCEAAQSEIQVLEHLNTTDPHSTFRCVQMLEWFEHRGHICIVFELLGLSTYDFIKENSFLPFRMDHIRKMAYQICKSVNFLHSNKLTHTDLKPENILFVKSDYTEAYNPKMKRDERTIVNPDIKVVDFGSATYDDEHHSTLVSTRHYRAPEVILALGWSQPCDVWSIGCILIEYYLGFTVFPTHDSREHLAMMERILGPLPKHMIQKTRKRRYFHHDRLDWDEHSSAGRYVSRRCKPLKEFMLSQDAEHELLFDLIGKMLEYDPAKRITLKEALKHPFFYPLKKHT
Chain of Dual specificity tyrosine-phosphorylation-regulated kinase 1B (Q9Y463 whole entry): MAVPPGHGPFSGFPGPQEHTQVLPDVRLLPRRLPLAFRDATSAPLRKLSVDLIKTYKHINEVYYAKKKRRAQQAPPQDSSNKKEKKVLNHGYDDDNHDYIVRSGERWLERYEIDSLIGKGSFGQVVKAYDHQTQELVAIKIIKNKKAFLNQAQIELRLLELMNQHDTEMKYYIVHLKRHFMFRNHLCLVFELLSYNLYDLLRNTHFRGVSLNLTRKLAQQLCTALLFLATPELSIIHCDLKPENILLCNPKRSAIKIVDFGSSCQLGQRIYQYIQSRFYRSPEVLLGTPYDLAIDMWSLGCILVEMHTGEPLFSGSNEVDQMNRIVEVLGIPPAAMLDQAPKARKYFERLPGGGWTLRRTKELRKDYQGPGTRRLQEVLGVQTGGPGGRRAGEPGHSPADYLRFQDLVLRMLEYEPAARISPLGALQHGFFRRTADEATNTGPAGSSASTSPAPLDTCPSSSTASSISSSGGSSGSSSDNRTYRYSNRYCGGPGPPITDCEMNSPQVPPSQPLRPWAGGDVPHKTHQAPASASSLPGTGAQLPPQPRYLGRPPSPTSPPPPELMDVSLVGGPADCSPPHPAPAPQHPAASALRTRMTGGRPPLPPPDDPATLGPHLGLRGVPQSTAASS

Row | Compound | IC50 [1] [µM] | IC50 [2] [µM] | IC50 [3] [µM] | IC50 [4] [µM] | IC50 [5] [µM] | IC50 [6] [µM] | IC50 [7] [µM] | IC50 [8] [µM] | Activity [9] [%] | Activity [10] [%] | activity at 10 µM [12] [%] | Activity [13] [%] | Activity [14] [%] | Activity [15] [%] | Activity [16] [%] | Activity [17] [%] | also measured
1 | CC(=O)O[C@H]1C(=O)[C@@]2(C)[C@H]([C@H](OC(=O)c3ccccc3)[C@]3(O)C[C@H](OC(=O)[C@H](O)[C@@H](NC(=O)c4ccccc4)c4ccccc4)C(C)=C1C3(C)C)[C@]1(OC(C)=O)CO[C@@H]1C[C@@H]2O [PACLITAXEL] | 0.002 | 0.1 | 0.03 | 0.014 | 0.01 | 0.002 | 0.013 |  |  |  |  |  |  |  |  |  | 
2 | CC[C@H](CO)Nc1nc(NCc2ccccc2)c2ncn(C(C)C)c2n1 [SELICICLIB] |  | 6 |  |  | 28 |  | 14 | 9 |  |  |  |  |  |  |  |  | 
3 | Cc1ccc(-n2cc(COc3cccc4cnc(Nc5cccc(Cl)c5)nc34)nn2)cc1[N+](=O)[O-] |  |  |  |  |  |  |  |  | 14 | 25 | 74 | 40 | 16 | 44 | 41 | 45 | IC50 [11]: 3 µM
4 | O=[N+]([O-])c1ccc(Cn2cc(COc3cccc4cnc(Nc5cccc(Cl)c5)nc34)nn2)cc1 |  |  |  |  |  |  |  |  | 60 | 72 | 88 | 90 | 39 | 76 | 65 | 77 | 
5 | COc1cccc2c1C(=O)c1c(O)c3c(c(O)c1C2=O)C[C@@](O)(C(=O)CO)C[C@@H]3O[C@H]1C[C@H](N)[C@H](O)[C@H](C)O1 [DOXORUBICIN] |  | 0.015 | 0.01 | 0.05 |  | 0.06 | 0.036 |  |  |  |  |  |  |  |  |  | 
6 | Clc1cccc(Nc2ncc3cccc(OCc4cn(-c5cc(Cl)cc(Cl)c5)nn4)c3n2)c1 | 8 | 8 | 9 | 8 | 7 | 8 | 7 | 5 | 35 | 64 | 100 | 90 | 81 | 77 | 55 | 78 | 
7 | Clc1cccc(Nc2ncc3cccc(OCc4cn(Cc5c(Cl)cccc5Cl)nn4)c3n2)c1 | 24 | 14 | 21 | 9 | 5 | 7 | 7 | 6 | 58 | 53 | 75 | 94 | 48 | 59 | 100 | 97 | 
8 | O=[N+]([O-])c1ccc(-n2cc(COc3cccc4cnc(Nc5cccc(Cl)c5)nc34)nn2)cc1 |  |  |  |  |  |  |  |  | 87 | 63 | 100 | 94 | 26 | 100 | 86 | 79 | 
9 | Clc1cccc(Nc2ncc3cccc(OCc4cn(-c5ccc(Br)cc5)nn4)c3n2)c1 | 17 | > 25 | 33 | 11 | 8 | 18 | 14 | 9 | 77 | 81 | 95 | 100 | 56 | 100 | 79 | 79 | 
10 | Clc1ccc(-n2cc(COc3cccc4cnc(Nc5cccc(Cl)c5)nc34)nn2)cc1 | > 25 | > 25 | > 25 | 24 | > 25 | > 25 | 24 | > 25 | 87 | 95 | 99 | 100 | 85 | 100 | 100 | 86 | 
11 | COc1cccc(-n2cc(COc3cccc4cnc(Nc5cccc(Cl)c5)nc34)nn2)c1 | 23 | 18 | 25 | 20 | > 25 | 10 | 23 | 8 | 47 | 85 | 87 | 94 | 27 | 100 | 40 | 79 | 
12 | COc1ccccc1-n1cc(COc2cccc3cnc(Nc4cccc(Cl)c4)nc23)nn1 | > 25 | > 25 | > 25 | > 25 | > 25 | 8 | 7 | 6 | 61 | 74 | 100 | 94 | 26 | 100 | 96 | 84 | 
13 | Cc1ccc(-n2cc(COc3cccc4cnc(Nc5cccc(Cl)c5)nc34)nn2)c([N+](=O)[O-])c1 |  |  |  |  |  |  |  |  |  | 54 |  | 84 | 11 | 94 |  | 81 | inhibition (INH) [18]: Not Active; inhibition (INH) [19]: Not Active; IC50 [11]: 0.12 µM; inhibition (INH) [20]: Not Active; inhibition (INH) [21]: Not Active
14 | Clc1cccc(Nc2ncc3cccc(OCc4cn(Cc5ccccc5)nn4)c3n2)c1 |  |  |  |  |  |  |  |  | 48 | 100 | 81 | 87 | 65 | 83 | 79 | 84 | 
15 | COc1ccc(-n2cc(COc3cccc4cnc(Nc5cccc(Cl)c5)nc34)nn2)cc1 |  |  |  |  |  |  |  |  | 47 | 100 | 94 | 100 | 70 | 100 | 86 | 69 | 
